Data from article PMC6539231, “4,5-Diaryl 3(2H)Furanones: Anti-Inflammatory Activity and Influence on Cancer Growth” (Molecules, 2019).
Entries after “also recorded” stand apart in the source; their conditions may differ. Like-named read-outs stand apart in the source and are kept apart here. Each block holds one compound with its values, some of them ahead of it.

Columns and labels:
[1] = test system: carrageenan mice paw oedema; test: Carrageenin-induced mouse paw edema; assay type: in vivo, mice (AKR); settings: for inhibition in vivo at 0.1 µmol/g: Mus musculus, ip, read-out: CPE, %; for anti-inflammatory activity, reference compounds: dose not given
Experimental: From the data of Table 7 it is obvious that anti-inflammatory activity of alkylsulfones and sulfoxides of furan-3(2H)-ones, including annelated derivatives are very similar.
The anti-inflammatory activity of compounds was performed using the carrageenan mice paw oedema assay. Animal of both sex (AKR), with exception of pregnant females were housed under standard conditions, receiving only water during the experimental period. […] The detailed description of the whole experiment reported previously. All the biological experiments were carried out in full compliance with the European Convention for the Protection of Vertebrate Animals used for Experimental or Other Scientific Purposes (ETS NO 123, Strasbourg, 03/18/1986): Strasbourg (France). European Treaty Series, № 123, March 18, 1986. 11 P. The project identification code and date of approval is 350880/3468 of 15-12-2014, University of Thessaloniki.

[2] = target: T1, ovine COX-1 (Ovis aries, UniProt P05979); test: In vitro COX-1 inhibition (Cayman COX Inhibitor Screening Assay kit); assay type: biochemical; settings: for % Inhibition (COX-1): Compound concentration 50 μΜ, arachidonic acid 0.1 μM; for IC50: read-out: Experimental IC50 COX-1
T1 construct: purchased Cayman Chemical Co., Ann Arbor, MI, USA
T1 sequence (P05979 25-600): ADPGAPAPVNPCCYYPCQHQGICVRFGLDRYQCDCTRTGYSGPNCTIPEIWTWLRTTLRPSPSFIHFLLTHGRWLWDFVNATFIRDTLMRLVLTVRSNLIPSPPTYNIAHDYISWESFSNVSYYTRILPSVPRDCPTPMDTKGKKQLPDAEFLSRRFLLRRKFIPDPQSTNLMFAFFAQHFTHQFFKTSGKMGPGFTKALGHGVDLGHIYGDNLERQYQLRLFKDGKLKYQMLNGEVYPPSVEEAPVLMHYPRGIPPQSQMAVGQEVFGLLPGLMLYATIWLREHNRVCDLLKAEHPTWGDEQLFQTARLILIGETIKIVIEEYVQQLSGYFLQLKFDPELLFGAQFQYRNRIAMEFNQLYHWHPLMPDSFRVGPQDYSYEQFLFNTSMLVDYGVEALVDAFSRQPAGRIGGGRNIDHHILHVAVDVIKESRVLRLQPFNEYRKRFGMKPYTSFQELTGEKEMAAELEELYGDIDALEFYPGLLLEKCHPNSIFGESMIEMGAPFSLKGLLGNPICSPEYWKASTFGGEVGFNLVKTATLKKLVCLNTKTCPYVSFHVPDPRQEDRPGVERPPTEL
Experimental: (§1) The COX-1 and COX-2 activities of the compounds were measured using ovine COX-1 and human recombinant COX-2 enzymes included in the “COX Inhibitor Screening Assay” kit provided by Cayman (Cayman Chemical Co., Ann Arbor, MI, USA) as reported previously

[3] = target: T2, human recombinant COX-2 (Homo sapiens, UniProt P35354); test: In vitro COX-2 inhibition (Cayman COX Inhibitor Screening Assay kit); assay type: biochemical; settings: for % Inhibition (COX-2): Compound concentration 50 μΜ, arachidonic acid 0.1 μM; for IC50: read-out: Experimental IC50 COX-2
T2 construct: purchased Cayman Chemical Co., Ann Arbor, MI, USA
T2 sequence (P35354 18-604): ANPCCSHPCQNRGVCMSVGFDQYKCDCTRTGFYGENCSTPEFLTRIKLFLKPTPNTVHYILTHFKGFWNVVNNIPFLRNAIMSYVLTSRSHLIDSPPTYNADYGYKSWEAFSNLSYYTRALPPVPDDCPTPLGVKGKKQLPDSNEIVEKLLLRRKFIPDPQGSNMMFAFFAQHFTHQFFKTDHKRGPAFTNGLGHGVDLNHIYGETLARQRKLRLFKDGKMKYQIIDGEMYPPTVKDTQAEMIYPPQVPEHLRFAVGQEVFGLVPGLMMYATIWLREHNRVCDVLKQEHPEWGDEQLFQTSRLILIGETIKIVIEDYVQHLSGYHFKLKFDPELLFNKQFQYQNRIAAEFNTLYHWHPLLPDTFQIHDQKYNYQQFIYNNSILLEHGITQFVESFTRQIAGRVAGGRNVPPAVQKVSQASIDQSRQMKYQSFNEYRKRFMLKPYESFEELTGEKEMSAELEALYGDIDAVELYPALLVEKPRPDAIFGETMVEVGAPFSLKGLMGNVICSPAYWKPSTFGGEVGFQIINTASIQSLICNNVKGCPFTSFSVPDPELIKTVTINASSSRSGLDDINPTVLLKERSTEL
Experimental: as §1

[4] = test system: MCF-7 cells; test: Growth inhibition assay, MCF-7 cells; assay type: cell-based, human; settings: 48 h exposure
[5] = test system: MCF-7 cells; test: Combination (synergy) growth assay in MCF-7 cells, Combination Index; assay type: cell-based, human; settings: MCF-7, 48 h; for Combination Effect with 5-fluorouracil / CI, combination with 5-fluorouracil: + 0.3 μM 5-fu; for % Cell Growth, combination with 5-fluorouracil: + 0.3 μM 5-fu (21.3 μM 1h, 2.9 μM 1g, 3.8 μM x-1, 29 μM cel); for CI, combination with 5-fluorouracil / CI, combination with gefitinib: CI <1 synergy, >1 antagonism; for Combination Effect with gefitinib / CI, combination with gefitinib: + 70 μM gef; for % Cell Growth, combination with gefitinib: + 70 μM gef (27.5 μM 1h, 10 μM 1g, 10 μM x-1, 29 μM cel)
Experimental: In addition, exposure of the MCF-7 cells to each of the compounds in combination with each one of the two anti-neoplastic drugs was performed in order to study the synergistic effect of the compounds. The results are shown in Table 9 and Figure 5 and Figure 6.

[6] = test system: MCF-7 cells; test: as above; assay type: cell-based, human; settings: MCF-7, 48 h
[7] = test system: HSC-3 cells; test: Growth inhibition assay, HSC-3 cells
[8] = Dose 0.1 µmol/g, intraperitoneally, simultaneously with carrageenin

Compound: C[S+]([O-])c1ccc(C2=C(c3ccccc3)OC(C)(C)C2=O)cc1 (stereo not drawn) [1b, 2,2-Dimethyl-4-[4′-(methylsulfinyl)phenyl]-5-phenylfuran-3(2H)-one]
- inhibition in vivo at 0.1 µmol/g [1, 8]: 47%

Compound: C[S+]([O-])c1ccc(C2=C(c3cccc(Cl)c3)OC(C)(C)C2=O)cc1 (stereo not drawn) [1n, 5-(3′-Chlorophenyl)-2,2-dimethyl-4-[4′-(methylsulfinyl)phenyl]-furan-3(2H)-one]
- inhibition in vivo at 0.1 µmol/g [1, 8]: 51%

Compound: CNS(=O)(=O)c1ccc(C2=C(c3ccc(Cl)cc3)OC(C)(C)C2=O)cc1 [1vMe, 5-(4′-Chlorophenyl)-2,2-dimethyl-4-[4′-(methylaminosulfonyl)phenyl]-furan-3(2H)-one]
- melting point: 204 to 205 °C

Compound: O=c1[nH]cc(F)c(=O)[nH]1 [5-Fluorouracil, reference compound]
- IC50 [4]: 0.03 µM

Compound: Cc1ccc(-c2cc(C(F)(F)F)nn2-c2ccc(S(N)(=O)=O)cc2)cc1 [Celecoxib, reference compound]
- anti-inflammatory activity, reference compounds [1]: 64.6%
- IC50 [4]: 29.2 µM
- IC50 ([4]; Homo sapiens, MCF7, 48 h): 29.2 µM
- Combination Effect with 5-fluorouracil [5]: antagonism
- % Cell Growth, combination with 5-fluorouracil [5]: 49.3%
- CI, combination with 5-fluorouracil [5]: 1.57
- CI, combination with 5-fluorouracil ([5]; listed as cel): >1
- Combination Effect with gefitinib [5]: antagonism
- % Cell Growth, combination with gefitinib [5]: 56.8%
- CI, combination with gefitinib [5]: 9.8
- CI, combination with gefitinib ([5]; listed as cel): >1

Compound: CC1(C)OC(c2ccc(S(C)(=O)=O)cc2)=C(c2ccccc2)C1=O [E-1, reference compound]
- inhibition in vivo at 0.1 µmol/g [1, 8]: 57.7%

Compound: CC1(C)OC(c2ccc(S(C)(=O)=O)cc2)=C(c2cccc(Cl)c2)C1=O [E-3, reference compound]
- inhibition in vivo at 0.1 µmol/g [1, 8]: 52.1%

Compound: COc1ccc2cc([C@H](C)C(=O)O)ccc2c1 [Naproxen, reference compound]
- IC50 [3]: 50 µM

Compound: COc1ccc2c(c1)c(CC(=O)O)c(C)n2C(=O)c1ccc(Cl)cc1 [indomethacin, reference compound]
- anti-inflammatory activity, reference compounds [1]: 47%

Compound: CC1(C)Oc2c(c3ccc(S(C)(=O)=O)cc3c3ccccc23)C1=O [x-1, 2′,2′-dimethyl-3-(methylsulfonyl)-phenanthro[9,10-b]furan-3′(2′H)-one]
- Combination Effect with celecoxib ([6]; + 29 μM cel): antagonism
- % Cell Growth, combination with celecoxib ([6]; + 29 μM cel (21.3 μM 1h, 2.9 μM 1g, 3.8 μM x-1)): 60.6%
- CI, combination with celecoxib ([6]; + 29 μM cel, CI <1 synergy, >1 antagonism): >1
- inhibition in vivo at 0.1 µmol/g [1]: 45%
- HSC-3 % Cell Growth ([7]; Compound concentration: 10μΜ): 91 ± 10%
- IC50 ([7]; Homo sapiens, HSC-3, 48 h, read-out: HSC-3 IC50 Values): 60 µM
- melting point: 222 to 224 °C
- IC50 ([4]; Homo sapiens, MCF7, 48 h): 10 µM
- Combination Effect with 5-fluorouracil [5]: antagonistic effect; also recorded: antagonism
- % Cell Growth, combination with 5-fluorouracil [5]: 21.0%
- CI, combination with 5-fluorouracil [5]: >1
- Combination Effect with gefitinib [5]: synergism
- % Cell Growth, combination with gefitinib [5]: 24.3%
- CI, combination with gefitinib [5]: 0.260 ± 0.033 < 1
- CI, combination with gefitinib ([5]; listed as X-1): 0.260

Compound: CC1(C)Oc2c(c3ccc(S(C)(=O)=O)cc3c3cc(F)ccc23)C1=O [x-2, 3-Fluoro-2′,2′-dimethyl-6-(methylsulfonyl)-phenanthro[9,10-b]furan-3′(2′H)-one]
- inhibition in vivo at 0.1 µmol/g [1]: 40%
- melting point: 242 to 244 °C

Continued, in another order:

- % Inhibition (COX-1) [2]: 0%
- % Inhibition (COX-2) [3]: 0%
Compound: CC1(C)OC(c2ccccc2)=C(c2ccc(S(C)(=O)=O)cc2)C1=O [1c, 2,2-Dimethyl-4-[4′-(methylsulfonyl)phenyl]-5-phenylfuran-3(2H)-one]
- inhibition in vivo at 0.1 µmol/g [1, 8]: 50.2%

- % Inhibition (COX-1) [2]: 0%
- % Inhibition (COX-2) [3]: 0%
Compound: C[S+]([O-])c1ccc(C2=C(c3ccc(Cl)cc3)OC(C)(C)C2=O)cc1 (stereo not drawn) [1j]
- inhibition in vivo at 0.1 µmol/g [1, 8]: 54%

- % Inhibition (COX-1) [2]: 80%
- IC50 [2]: 29 µM
- melting point: 223 to 225 °C
- % Inhibition (COX-2) [3]: 6%
- IC50 [3]: > 50 µM
Compound: CC1(C)OC(c2ccc(Cl)cc2)=C(c2ccc(S(C)(=O)=O)cc2)C1=O [1k, 5-(4′-Chlorophenyl)-2,2-dimethyl-4-[4′-(methylsulfonyl)phenyl]-furan-3(2H)-one]
- inhibition in vivo at 0.1 µmol/g [1, 8]: 50.6%

- IC50 [2]: 22 µM
- melting point: 219 to 221 °C
- IC50 [3]: 71 µM
Compound: CC1(C)OC(c2cccc(Cl)c2)=C(c2ccc(S(C)(=O)=O)cc2)C1=O [1o, 5-(3′-Chlorophenyl)-2,2-dimethyl-4-[4′-(methylsulfonyl)phenyl]-furan-3(2H)-one]
- inhibition in vivo at 0.1 µmol/g [1, 8]: 50.7%

- melting point: 158 to 160 °C
Compound: CC1(C)OC(c2ccccc2)=C(c2ccc(S(N)(=O)=O)cc2)C1=O [1q, 5-(4′-Phenyl)-2,2-dimethyl-4-[4′-(aminosulfonyl)phenyl]-furan-3(2H)-one]
- inhibition in vivo at 0.1 µmol/g [1, 8]: 38%

- melting point: 198 to 200 °C
Compound: CC1(C)OC(c2cccc(Cl)c2)=C(c2ccc(S(N)(=O)=O)cc2)C1=O [1u, 5-(3′-Chlorophenyl)-2,2-dimethyl-4-[4′-(aminosulfonyl)phenyl]-furan-3(2H)-one]

- IC50 [2]: 28 µM
- melting point: 224 to 225 °C
- IC50 [3]: 20 µM
Compound: CC1(C)OC(c2ccc(Cl)cc2)=C(c2ccc(S(N)(=O)=O)cc2)C1=O [1v, 5-(4′-Chlorophenyl)-2,2-dimethyl-4-[4′-(aminosulfonyl)phenyl]-furan-3(2H)-one]
- inhibition in vivo at 0.1 µmol/g [1, 8]: 44.3%

- IC50 [2]: 70 µM
- melting point: 167 to 169 °C
- IC50 [3]: > 50 µM
Compound: CC1(C)OC(c2ccc(F)cc2)=C(c2ccc(S(N)(=O)=O)cc2)C1=O [1w, 5-(4′-Fluorophenyl)-2,2-dimethyl-4-[4′-(aminosulfonyl)phenyl]-furan-3(2H)-one]
- inhibition in vivo at 0.1 µmol/g [1, 8]: 43.7%
